In US20080312184A1 (priority 2005, published 2008):

What was measured:
[1] = test system: powdery mildew pathogen (EBI resistant strain); assay: Control Test on Powdery Mildew of Cucumbers (EBI Resistant Strain); assay type: in vivo, cucumbers (cultivar: sagami-hanjiro); details: single active ingredient
[2] = test system: gray mold fungus (MBC resistant, dicarboximide-based chemical sensitive: RS strain); assay: Control Test on Gray Mold of Tomato at its Flowering Stage (RS Strain); assay type: in vivo, tomatoes (cultivar: House-Momotaro); details: Table 4, single active ingredient, sprayed twice, examined after 7 days
[3] = Table 1, treated concentration 10 ppm, examined after 14 days

CNC(=O)/C(=N/OC)c1ccccc1COc1cc(C)ccc1C [Dimoxystrobin, dimoxystrobin]
Control Value ([1]; Table 7 (Example B), treated concentration 15 ppm): 60

CC(C)(C)C(=O)C(Oc1ccc(Cl)cc1)n1cncn1 (stereo not drawn) [Triadimefon, triadimefon]
Control Value [1, 3]: 29

O=C(Cc1ccccc1)N/C(=N\OCC1CC1)c1c(C(F)(F)F)ccc(F)c1F [Cyflufenamid, cyflufenamid]
Control Value ([1]; Table 1, treated concentration 5 ppm, examined after 14 days): 66

CCCCc1c(C)nc(NCC)nc1OS(=O)(=O)N(C)C [Bupirimate, bupirimate]
Control Value ([1]; Table 1, treated concentration 20 ppm, examined after 14 days): 45

Clc1nc(Cl)nc(Nc2ccccc2Cl)n1 [Anilazine, anilazine]
Control Value ([2]; treated concentration 50 ppm): 40

CC(C)CC(C)c1sccc1NC(=O)c1cn(C)nc1C(F)(F)F (racemic) [P (penthiopyrad), (RS)—N-[2-(1,3-dimethylbutyl)thiophen-3-yl]-1-methyl-3-tri fluoromethyl-1H-pyrazole-4-carboxamide]
Control Value ([2]; treated concentration 10 ppm): 56
Control Value [1, 3]: 68
Control Value ([1]; Table 7 (Example B), treated concentration 10 ppm): 68

CCOC(=O)C1(C)OC(=O)N(c2cc(Cl)cc(Cl)c2)C1=O (stereo not drawn) [Chlozolinate, chlozolinate]
Control Value ([2]; treated concentration 40 ppm): 42

O=C(Nc1ccccc1-c1ccc(Cl)cc1)c1cccnc1Cl [Boscalid, boscalid]
Control Value ([2]; treated concentration 20 ppm): 48

FC(F)C(F)(F)OCC(Cn1cncn1)c1ccc(Cl)cc1Cl (stereo not drawn) [Tetraconazole, tetraconazole]
Control Value [1, 3]: 34

CC1(C(=O)Nc2ccc(O)c(Cl)c2Cl)CCCCC1 [Fenhexamid, fenhexamid]
Control Value ([2]; treated concentration 20 ppm): 55
